The values below come from patent publication US20060287347A1, “Methods for treating smooth muscle disorders using trospium” (priority 2005, published 2006).

For series [1], the system named is carbachol-induced contractions of urinary bladder strips. Briefly: Antimuscarinic activity on bladder smooth muscle strips (carbachol-induced contractions). The series is classed as cell-based, guinea pig. As to conditions: Cavia porcellus, read-out: KB, inhibition of carbachol-induced contractions. As to the method: • Experiments have now been performed using methods described by Kachur et al, 1988, J Pharmacol Exp Ther 247: 867-872) and Noronha-Blob et al. J Pharmacol Exp Ther 256: 562-567). Strips of tissue (approximately 10 mm long and 1.5 mm wide) were removed from the urinary bladder of male guinea pigs. The tissues were suspended in an oxygenated buffer of the following composition, in mM: NaCl 133; KCl 4.7; CaCl2 2.5; MgSO4 0.6; […] The smooth muscle strips were maintained at or about 37.5° C. in tissue chambers and allowed to equilibrate with the bathing solution for one hour before proceeding with the experiment. […] R., Wright S. E., Aberg […]. 1998, 48: 1012-1018).

The target of series [2] is T1, human recombinant muscarinic receptor M-4 (Homo sapiens, UniProt P08173).
T1 sequence (P08173 1-479): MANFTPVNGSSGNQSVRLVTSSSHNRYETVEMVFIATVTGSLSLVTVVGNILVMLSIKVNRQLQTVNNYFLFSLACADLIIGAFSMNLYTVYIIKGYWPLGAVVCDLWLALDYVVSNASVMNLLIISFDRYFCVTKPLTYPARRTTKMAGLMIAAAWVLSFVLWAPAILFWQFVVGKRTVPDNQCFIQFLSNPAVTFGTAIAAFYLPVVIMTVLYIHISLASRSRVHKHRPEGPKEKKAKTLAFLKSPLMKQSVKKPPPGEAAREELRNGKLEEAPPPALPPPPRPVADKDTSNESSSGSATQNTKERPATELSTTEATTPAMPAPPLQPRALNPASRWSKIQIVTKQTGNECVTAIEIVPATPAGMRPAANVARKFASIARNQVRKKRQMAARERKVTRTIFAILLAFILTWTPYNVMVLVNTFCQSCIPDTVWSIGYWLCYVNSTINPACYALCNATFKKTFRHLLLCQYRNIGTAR
In words: Ligand binding, affinity for muscarinic receptors (M-4). Particulars: membranes from SF9 cells, radioligand 3H scopolamine methylchloride; read-out: Affinity (negative logarithm of the dissociation constant Ki), M-4 (converted).
Description: The experiments were carried out on membranes prepared from SF9 cells that expressed human recombinant muscarinic receptor subtypes. After incubation with the test article and the proper radioligand (^3H scopolamine methylchloride) and washing, bound radioactivity was determined with a liquid scintillation counter, using a commercial scintillation cocktail. The specific radioligand binding to a muscarinic receptor was defined as the difference between total binding and nonspecific binding determined in the presence of an excess of unlabelled atropine.

Another series relates to learning behavior. In words: Cognitive side effects, Test Protocol 1: T-shaped maze learning. As to conditions: for Effect on learning behavior (time to choose the correct arm of the T-maze): conscious rats, naive animals. The series is classed as in vivo, rat. As to the method:
Conscious rats are used. The animals are placed at the base of a T-shaped maze with a reward placed in one of the arms of the maze. The effect of the test article on learning is determined by investigating the time it takes in the maze before the rats choose the correct arm of the maze. Experiments were also performed in rats that had been pretreated with phenylephrine to increase the permeability of the blood-brain barrier. Control groups of animals were treated with placebo (vehicle only) or with oxybutynin.

The subject of series [3] is behavioral, neurological, autonomic and toxicity changes. Briefly: Cognitive side effects, Test Protocol 2: modified Irwin test. It counts as in vivo, mouse. Particulars: oral dosing. As for the experimental part: Modified Irwin tests were performed. This is a routine neuro-pharmacological test method. Conscious mice were used. The procedure involved an initial phase of undisturbed observation and a later manipulative phase. An animal's assessment started by observing its undisturbed behavior in housing (body position, locomotor activity, etc.). Thereafter the animal was transferred by tail on the working table for the manipulative phase (spatial locomotion, gait, aggressiveness, etc.). The occurrence of any unexpected state was noted. The responses to test substances were assessed at 60 min, 120 min and 24 hrs after dosing. Animals were dose orally with trospium chloride, some groups of animals had been pretreated with phenylephrine to increase the permeability of the blood-brain barrier. Criteria included behavioral, neurological, autonomic and toxicity changes in comparison with vehicle-treated groups. The results were expressed for each group as the number of animals displaying behavioral changes versus the corresponding control group at each observation time. No statistical analysis was carried out since the lack of statistically significant differences were obvious to the investigator.

The mark [4] stands for this setting: male guinea pig urinary bladder strips.

What is called Ki is a measure of affinity in units of concentration, obtained from inhibition or displacement.

Each structure is given as a SMILES string. Read-outs that look alike come from different tables or passages of the source.

For `CC(CC(c1ccccc1)c1ccccc1)NC(C)(C)C` (stereo not drawn) [terodiline], in series [1] (setting [4]), the Kb was 1.5 to 5.5 nM.
Regarding `NC(=O)C(c1ccccc1)(c1ccccc1)[C@@H]1CCN(CCc2ccc3c(c2)CCO3)C1` [Darifenacin], the Ki in series [2] is 39.8 nM.
On to `CCN(CC)CC#CCOC(=O)C(O)(c1ccccc1)C1CCCCC1` (stereo not drawn) [Oxybutynin], for which, in the series with learning behavior (ongoing studies), the “Effect on learning behavior (time to choose the correct arm of the T-maze)” value is reported as “learning is delayed”. Further, the Kb in series [1] (setting [4]) was 1.5 to 5.5 nM.
`Cc1ccc(O)c([C@H](CCN(C(C)C)C(C)C)c2ccccc2)c1` [Tolterodine]: the Ki in series [2] was 12.6 nM. Besides, the Kb in series [1] is 1.5 to 5.5 nM.
With `O=C(O[C@H]1C[C@H]2CC[C@@H](C1)[N+]21CCCC1)C(O)(c1ccccc1)c1ccccc1` [Trospium, endo-3-[(hydroxydiphenyl-acetyl)oxy]spiro[8-azoniabicyclo[3.2.1]octane-8,1′-pyrrolidinium]chloride], the “Behavioral changes in modified Irwin test versus control group” value in series [3] (conscious mice, assessed at 60 min, 120 min and 24 hrs) was “did not influence the test results”. For the same molecule, the “Behavioral changes in modified Irwin test after phenylephrine pretreatment” value in series [3] (mice pretreated with phenylephrine to increase BBB permeation) is given as “no significant effects”. Besides, the “Effect on learning behavior (time to choose the correct arm of the T-maze)” value with learning behavior (ongoing studies) is reported as “does not influence the learning behavior”. For the same molecule, the “Further impairment of learning behavior” value in the series on learning behavior (rats in which a learning disorder has been induced with oxybutynin, ongoing studies) is recorded as “no further impairment of learning behavior”. In addition, the “Impairment of learning behavior after phenylephrine pretreatment” value in the series on learning behavior (rats pretreated with phenylephrine to increase blood-brain barrier permeability) is on record as “did not uncover any impairment of learning behavior”. The Kb in series [1] was in the range of 1.5 to 5.5 nM.
